Test results: patent US12180249B1, “Compositions and methods for selective labeling of secondary amines” (Emory University, priority 2021, dated 2024)

Test: chemical stability of the triazene-coupling product under different conditions
Format: physicochemical
Conditions: incubated in water:ACN mixture for 24 h
Experimental: The chemical stability of the triazene-coupling product was tested under different conditions. The triazene-coupling product acts as a protecting group for secondary amines and tolerates various coupling reagents, such as N,N′-diisopropylcarbodiimide (DIC), and bases, such as N,N-diisopropylethylamine (DIEA) and pyridine (PPR), which is required for Fmoc peptide synthesis. It is also stable to a strong protein disulfide reducing agent tris(2-carboxyethyl) phosphine (TCEP) and click chemistry (CuAAC) conditions. […] This is in contrast to the stability of the azo coupling product with Tyr, which degrades quickly in the presence of sodium dithionate to generate modified tyrosine
Even though the triazene-secondary amine linkage is stable under physiologically relevant conditions, experiments were performed to determine whether the conjugate can be decoupled in a traceless manner. Indeed, exposure of the triazene modified peptide 4 MDz-AKmeF to acidic conditions (10% TFA in H2O) led to its rapid cleavage in 5 min to unchanged peptide AKmeF, as observed by HPLC and MS analysis. It is noteworthy that the acidic cleavage generated original coupling partners in an unperturbed manner. In contrast, a handful of the coupling reactions are reversible, but the products derived from decoupling are modified versions of the original reactants. […]

SMILES: COC(=O)C1CCCN1N=Nc1ccc(OC)cc1 (stereo not shown) [4 MDz-Pro-OMe]
- decomposition of the triazene-coupling product: no decomposition
